According to ChEMBL document CHEMBL2034957, “Synthesis and antitumor evaluation of novel benzo[d]pyrrolo[2,1-b]thiazole derivatives” (Eur J Med Chem, 2012):
pIC50: −log10 of the molar value. The source made the active and inactive calls. The calls are words filed in the database; no cut-off is given here.

Assays:
Mus musculus [1] = assay: Toxicity in athymic nude mouse assessed as weight loss at 30 mg/kg, iv administered q2d for 4 days; assay type: organism-based; parameters: dose 30 mg/kg, route intravenous; conditions: in vivo, 96 h
CCRF-CEM [2] = assay: Ratio of IC50 for human taxol-resistant CCRF-CEM cells to IC50 for human CCRF-CEM cells; assay type: functional
[3] = Cytotoxicity against human OECM1 cells after 72 hrs by alamar blue assay; assay type: functional, cell-based; conditions: OECM1, 72 h
Mus musculus [4] = assay: Toxicity in athymic nude mouse assessed as weight loss at 20 mg/kg, iv administered q2d for 3 days followed by 25 mg/kg, iv q2d for 4 days; assay type: organism-based; conditions: in vivo
[5] = Cytotoxicity against human U87 cells after 72 hrs by alamar blue assay; assay type: functional, cell-based, U-87MG ATCC; conditions: U-87 MG
HCT-116 = assay: Cytotoxicity against human HCT116 cells after 72 hrs by SRB assay; assay type: functional, cell-based; conditions: HCT-116, 72 h
CCRF-CEM [6] = assay: Ratio of IC50 for human vinblastine-resistant CCRF-CEM cells to IC50 for human CCRF-CEM cells; assay type: functional
PC-3 = assay: Cytotoxicity against human PC3 cells after 72 hrs by alamar blue assay; assay type: functional, cell-based; conditions: PC-3, 72 h
CCRF-CEM [7] = assay: Cytotoxicity against human vinblastine-resistant CCRF-CEM cells after 72 hrs by XTT assay; assay type: functional, cell-based
MX1 [8] = assay: Cytotoxicity against human MX1 cells after 72 hrs by SRB assay; assay type: functional, cell-based; conditions: MX1, 72 h
CCRF-CEM [9] = assay: Cytotoxicity against human CCRF-CEM cells after 72 hrs by XTT assay; assay type: functional, cell-based
Nucleic Acid = assay: Induction of Escherichia coli pEGFP-N1 DNA interstrand cross-linking at 1 to 20 uM after 2 hrs using ethidium bromide staining by alkaline agarose gel shift assay; assay type: nucleic-acid assay
CCRF-CEM [10] = assay: Cytotoxicity against human taxol-resistant CCRF-CEM cells after 72 hrs by XTT assay; assay type: functional, cell-based
[11] = Cytotoxicity against human H1299 cells after 72 hrs by alamar blue assay; assay type: functional, cell-based; conditions: NCI-H1299, 72 h
Mus musculus [12] = assay: Toxicity in athymic nude mouse assessed as weight loss at 10 mg/kg, iv administered q2d for 4 days; assay type: organism-based; parameters: dose 10 mg/kg, route intravenous; conditions: in vivo, 96 h
MX1 [13] = assay: Antitumor activity against human MX1 cells xenografted in athymic nude mouse assessed as tumor suppression at 10 mg/kg, iv administered q2d for 4 days; assay type: functional
[14] = Cell cycle arrest in human H1299 cells assessed as accumulation of sub-G1 phase cells after 24 to 48 hrs by propidium iodidee-based flow cytometry; assay type: functional; conditions: NCI-H1299
MX1 [15] = assay: Antitumor activity against human MX1 cells xenografted in athymic nude mouse assessed as tumor suppression at 30 mg/kg, iv administered q2d for 4 days; assay type: functional
[16] = Cell cycle arrest in human H1299 cells assessed as accumulation of G2/M phase cells after 24 to 48 hrs by propidium iodidee-based flow cytometry; assay type: functional; conditions: NCI-H1299
[17] = Cell cycle arrest in human H1299 cells assessed as reduction in G1 phase cells after 24 to 48 hrs by propidium iodidee-based flow cytometry; assay type: functional; conditions: NCI-H1299
[18] = Cell cycle arrest in human H1299 cells assessed as accumulation of G1 phase cells at 25 uM at 48 hrs by propidium iodideee-based flow cytometry; assay type: functional; conditions: NCI-H1299
[19] = Cell cycle arrest in human H1299 cells assessed as reduction in G1 phase cells at 25 uM at 24 hrs by propidium iodideee-based flow cytometry; assay type: functional; conditions: NCI-H1299

| SMILES | Ratio IC50 (CCRF-CEM [2]) | pIC50 [3] | pIC50 [5] | Ratio IC50 (CCRF-CEM [6]) | pIC50 (PC-3) | pIC50 (CCRF-CEM [7]) | pIC50 (CCRF-CEM [9]) | pIC50 (CCRF-CEM [10]) | pIC50 [11] | also measured |
| --- | --- | --- | --- | --- | --- | --- | --- | --- | --- | --- |
| CC(C)NC(=O)OCc1c(COC(=O)NC(C)C)c2sc3ccccc3n2c1-c1ccc(F)cc1 | 3.2 | 4.92 | 4.27 | 3.8 | 4.62 | 6.72 | 7.30 | 6.80 | 4.48 | Activity (Mus musculus [1]): 20%; Activity (Mus musculus [4]): 20%; pIC50 (HCT-116): 6.46; pIC50 (MX1 [8]): 6.21; Activity (Nucleic Acid): Active; Activity (Mus musculus [12]): 20% |
| COc1cc(-c2c(CO)c(CO)c3sc4ccccc4n23)cc(OC)c1OC |  |  |  |  |  |  | 5.39 |  |  |  |
| OCc1c(CO)c2sc3ccccc3n2c1-c1ccc(Cl)c(Cl)c1 |  |  |  |  |  |  | 5.98 |  |  |  |
| CCNC(=O)OCc1c(COC(=O)NCC)c2sc3ccccc3n2c1-c1ccc(F)cc1 | 5.42 | 4.94 | 4.53 | 6.42 | 4.63 | 6.35 | 7.15 | 6.42 | 4.87 | Activity (Mus musculus [1]): 20%; Activity (Mus musculus [4]): 20%; pIC50 (HCT-116): 6.28; pIC50 (MX1 [8]): 6.32; Activity (Nucleic Acid): Active; Activity (MX1 [13]): >99%; Activity (Mus musculus [12]): 20% |
| OCc1c(CO)c2sc3ccccc3n2c1C1CC1 | 2.37 | 5.15 | 4.54 | 2.51 | 4.97 | 5.61 | 6.01 | 5.64 | 4.88 |  |
| COc1cc(-c2c(COC(=O)NC(C)C)c(COC(=O)NC(C)C)c3sc4ccccc4n23)cc(OC)c1OC |  |  |  |  |  |  | 5.98 |  |  |  |
| CC(C)NC(=O)OCc1c(COC(=O)NC(C)C)c2sc3ccccc3n2c1-c1ccc(Cl)c(Cl)c1 |  |  |  |  |  |  | 5.64 |  |  |  |
| COc1ccc(-c2c(CO)c(CO)c3sc4ccccc4n23)cc1OC |  |  |  |  |  |  | 5.74 |  |  |  |
| OCc1c(CO)c2sc3ccccc3n2c1-c1ccc(F)c(Cl)c1 |  |  |  |  |  |  | 5.51 |  |  |  |
| CC(C)NC(=O)OCc1c(COC(=O)NC(C)C)c2sc3ccccc3n2c1C1CC1 | 7.3 | 5.01 | 4.34 | 9 | 4.87 | 6.05 | 7.00 | 6.14 | 4.69 |  |
| CCNC(=O)OCc1c(COC(=O)NCC)c2sc3ccccc3n2c1-c1cc(OC)c(OC)c(OC)c1 |  |  |  |  |  |  | 6.49 |  |  |  |
| CCNC(=O)OCc1c(COC(=O)NCC)c2sc3ccccc3n2c1-c1ccc(F)c(Cl)c1 |  |  |  |  |  |  | 6.42 |  |  |  |
| CCNC(=O)OCc1c(COC(=O)NCC)c2sc3ccccc3n2c1C | 1.3 |  |  | 1.3 |  | 6.37 | 6.48 | 6.35 |  |  |
| OCc1c(CO)c2sc3ccccc3n2c1-c1ccc(F)c(F)c1 | 1 | 5.07 | 4.76 | 1.47 | 4.82 | 6.55 | 6.72 | 6.72 | 4.67 |  |
| COc1ccc(-c2c(CO)c(CO)c3sc4ccccc4n23)cc1 | 1.9 | 5.30 | 4.74 | 2.3 | 5.06 | 5.58 | 5.95 | 5.66 | 5.00 | Activity (Nucleic Acid): Active |
| Cc1c(CO)c(CO)c2sc3ccccc3n12 | 1.93 |  |  | 1.91 |  | 5.73 | 6.01 | 5.73 |  | pIC50 (HCT-116): 5.35; pIC50 (MX1 [8]): 5.15 |

| SMILES | Ratio IC50 (CCRF-CEM [2]) | pIC50 [3] | pIC50 [5] | Ratio IC50 (CCRF-CEM [6]) | pIC50 (PC-3) | pIC50 (CCRF-CEM [7]) | pIC50 (CCRF-CEM [9]) | pIC50 (CCRF-CEM [10]) | pIC50 [11] | also measured |
| --- | --- | --- | --- | --- | --- | --- | --- | --- | --- | --- |
| CCNC(=O)OCc1c(COC(=O)NCC)c2sc3ccccc3n2c1-c1ccc(F)c(F)c1 | 1.61 | 4.84 | 4.41 | 1.47 | 4.72 | 6.51 | 6.68 | 6.47 | 4.99 | pIC50 (HCT-116): 5.96; pIC50 (MX1 [8]): 5.83 |
| CC(C)NC(=O)OCc1c(COC(=O)NC(C)C)c2sc3ccccc3n2c1-c1ccc(F)c(F)c1 | 0.57 | 4.82 | 4.13 | 0.9 | 4.53 | 6.52 | 6.48 | 6.72 | 4.51 | pIC50 (HCT-116): 6.39; pIC50 (MX1 [8]): 6.00 |
| CCNC(=O)OCc1c(COC(=O)NCC)c2sc3ccccc3n2c1-c1ccc(Cl)cc1 | 1.52 | 4.94 | 4.58 | 1.85 | 4.86 | 6.41 | 6.68 | 6.49 | 5.36 | Activity [14]: Active; Activity (Mus musculus [1]): 20%; Activity (MX1 [15]): >99%; Activity (Mus musculus [4]): 20%; pIC50 (HCT-116): 6.15; pIC50 (MX1 [8]): 6.04; Activity (Nucleic Acid): Active; Activity [16]: Active; Activity [17]: Dose-dependent effect; Activity (Mus musculus [12]): 20% |
| CCNC(=O)OCc1c(COC(=O)NCC)c2sc3ccccc3n2c1C1CC1 | 4.01 | 4.58 | 4.13 | 3.18 | 4.62 | 6.27 | 6.77 | 6.17 | 4.69 |  |
| COc1ccc(-c2c(COC(=O)NC(C)C)c(COC(=O)NC(C)C)c3sc4ccccc4n23)cc1OC |  |  |  |  |  |  | 6.96 |  |  |  |
| OCc1c(CO)c2sc3ccccc3n2c1-c1ccc(F)cc1 | 2.41 | 5.22 | 4.81 | 3.5 | 4.86 | 5.43 | 5.97 | 5.59 | 5.03 | pIC50 (HCT-116): 5.02; pIC50 (MX1 [8]): 5.56; Activity (Nucleic Acid): Active |
| CC[C@]1(O)C[C@@H]2CN(CCc3c([nH]c4ccccc34)[C@@](C(=O)OC)(c3cc4c(cc3OC)N(C)[C@H]3[C@@](O)(C(=O)OC)[C@H](OC(C)=O)[C@]5(CC)C=CCN6CC[C@]43[C@@H]65)C2)C1 [VINBLASTINE] | 106 |  |  | 680 |  |  |  |  |  |  |
| Cc1c(COC(=O)NC(C)C)c(COC(=O)NC(C)C)c2sc3ccccc3n12 | 1.69 |  |  | 1.92 |  | 6.60 | 6.89 | 6.66 | 5.01 | pIC50 (HCT-116): 6.01; pIC50 (MX1 [8]): 6.89 |
| CCNC(=O)OCc1c(COC(=O)NCC)c2sc3ccccc3n2c1-c1ccc(Cl)c(Cl)c1 |  |  |  |  |  |  | 6.42 |  |  |  |
| OCc1c(CO)c2sc3ccccc3n2c1-c1ccc(Cl)cc1 | 2 | 4.84 | 4.68 | 1.56 | 4.69 | 5.39 | 5.58 | 5.28 | 4.91 | Activity [18]: Active; pIC50 (HCT-116): 5.03; Activity [19]: Active; pIC50 (MX1 [8]): 4.98; Activity (Nucleic Acid): Active |
| CC(C)NC(=O)OCc1c(COC(=O)NC(C)C)c2sc3ccccc3n2c1-c1ccc(F)c(Cl)c1 |  |  |  |  |  |  | 6.30 |  |  |  |
| CC(=O)O[C@H]1C(=O)[C@@]2(C)[C@H]([C@H](OC(=O)c3ccccc3)[C@]3(O)C[C@H](OC(=O)[C@H](O)[C@@H](NC(=O)c4ccccc4)c4ccccc4)C(C)=C1C3(C)C)[C@]1(OC(C)=O)CO[C@@H]1C[C@@H]2O [PACLITAXEL] | 358 |  |  | 980 |  |  |  |  |  |  |
| CCNC(=O)OCc1c(COC(=O)NCC)c2sc3ccccc3n2c1-c1ccc(OC)c(OC)c1 |  |  |  |  |  |  | 6.31 |  |  |  |
| COc1ccc(-c2c(COC(=O)NC(C)C)c(COC(=O)NC(C)C)c3sc4ccccc4n23)cc1 | 1.17 | 5.14 | 4.22 | 1.47 | 4.76 | 6.60 | 6.85 | 6.77 | 5.09 | Activity (Nucleic Acid): Active |
| CCNC(=O)OCc1c(COC(=O)NCC)c2sc3ccccc3n2c1-c1ccc(OC)cc1 | 1.9 | 5.03 | 4.53 | 2.2 | 4.75 | 6.38 | 6.72 | 6.43 | 5.05 | Activity (Nucleic Acid): Active |
